Results: patent US20060229358A1, “Pharmaceutical composition containing flavonoids” (Taipei Medical University, priority 2005, published 2006)

Tested on: PDE4
Assay: Inhibition of cyclic nucleotide PDE activity (Assay I), PDE4, incl. Lineweaver-Burk analysis
Assay type: biochemical, guinea pig
Conditions: from the IC50s of Table 2
Experimental: Under a protocol approved by the Animal Care and Use Committee of Taipei Medical University, five male guinea pigs (Hartley), weighing 500-600 g, were sacrificed. The lungs (15 g) or hearts (4 g) taken therefrom were chopped into small pieces and homogenized with a glass/teflon homogenizer (Glas-Col, Terre Haute, Ind., USA) in 10 volumes of cold medium (pH 6.5) containing 20 mM Bis-Tris, 2 mM benzamidine, 2 mM EDTA, 50 mM sodium chloride, 0.1 mM phenylmethanesulfonyl fluoride (PMSF), and 1 mM dithiothreitol. At 4° C., the homogenate was centrifuged at 170 g for 15 min, and the supernatant thereof was then re-centrifuged at 40,000 g for 30 min. […] The column was washed with two bed volumes of homogenate buffer to remove unbound material, where the resin beads therein will bind with proteins, such as PDE proteins. Proteins bound to the Q-sepharose beads were eluted with various concentrations (0.23, 0.34, 0.44, 0.69, and 1.00 M) of NaCl dissolved in homogenate buffer (for each concentration, 40-50 mL elution buffer were applied) at a flow rate of 30 ml/h. Fractions (3 ml each) were collected, and ethylene glycol (EG) was added thereto until a final concentration of 30% (v/v). And then the samples were frozen at −70° C.
The activities of PDE1-5 in the homogenate were measured with a two-step procedure according to the method of Thompson and Appleman, using cAMP with [^3H]-cAMP or cGMP with [^3 H]-cGMP as substrates. The PDE enzyme prepared (25 μl) with 10 μl inhibitor or the solvents therefor was incubated for 30 min at 37° C. in a total assay buffer, where the final volume of the assay is amounted to 100 μl. In accordance with the features of the PDE isozymes, the assay buffer contains 50 mM Tris/HCl (pH 7.4), 3 mM MgCl2, 1 mM dithiothreitol, and 0.05% BSA, and optionally contains 1 uM cAMP with 0.2 μCi [^3H]-cAMP as a substrate alone or in the presence of 0.1 unit calmodulin with 10 μM CaCl2, or 5 μM cGMP, and 1 μM cGMP with 0.2 μCi [^3H]-cGMP as another substrate alone or in the presence of 0.1 unit calmodulin with 10 μM CaCl2.
The PDE enzyme and the inhibitors (or their solvent) therefor were mixed and incubated on ice for 30 min previously, and then mixed with the assay buffer. The assay was initiated by transferring the mixture to a water bath at 37° C. Following the other 30 min incubation, the reaction was stopped by transferring the reaction vessel to a bath of boiling water for 3 min. After cooling on ice, 20 μl of the 1 mg/ml of Crotalus atrox venom was added to the reaction mixture, and the mixture was incubated at 37° C. for 10 min. The uncatalyzed substrates, such as cAMP, [^3H]-cAMP, cGMP, or [^3H]-cGMP were removed by the addition of 500 μl of a 1-in-1 Tris-HCl (40 mM) buffer suspension of Dowex resin (1×8-200) with incubation on ice for 30 min, since the bindings of the cyclic nucleotides and the resin. Each tube was then centrifuged for 2 min at 6000 rpm, and 100 μl of the supernatant was removed and counted by a β-counter for calculating the enzyme (PDEs) activity.
The dissociation constant of inhibitor binding (Ki) value was determined from the equation of apparent Km as a function of the inhibitor concentration (insert in A and B, respectively). The slope of the equation is equal to the value of […] (where KM is Michaelis constant). The amounts of the total proteins are calculated based on the analytical method reported by Bradford. In FIGS. 1A and 1B, all enzyme activities are shown as nmole of substrate per mg of proteins per minute (nmole/mg/min) hydrolyzed.
The IC50 values of flavonoids and various reference drugs were calculated using non-linear regression analysis by the software SigmaPlot 7.0 (Sigma Chemical, St. Louis Mo., USA).

Compound: COc1cc(O)c2c(=O)c(-c3ccc(O)cc3)coc2c1 [Prunetin]
- selectivity among PDE1-5: more-selective inhibition on PDE4
